Measurements reported in the supplement of paper PMC13380429.

How the values were obtained:
[1] = system: Caco-2; test: cell viability relative to DMSO; higher = less toxic; conditions: 72 h
[2] = system: Calu-3; test: as above; conditions: 72 h
[3] = system: HepG2; test: as above; conditions: 72 h
[4] = system: Vero E6; test: as above; conditions: 72 h
[5] = system: U2OS; test: as above; conditions: 72 h
[6] = system: A549-ACE2 infected with SARS-CoV-2; test: cell count relative to DMSO; higher = less toxic; conditions: 24 h
[7] = system: Calu-3; test: relative viability EC50 (midpoint between 100% and the lowest measured viability); higher = less toxic; conditions: 72 h
[8] = system: HepG2; test: as above; conditions: 72 h
[9] = system: Vero E6; test: as above; conditions: 72 h
[10] = system: U2OS; test: as above; conditions: 72 h
[11] = system: A549-ACE2 infected with SARS-CoV-2; test: morphology score (similarity to uninfected cells); higher = more like uninfected cells; conditions: 24 h
[12] = system: A549-ACE2; test: phospholipidosis EC50; higher = less potent phospholipidosis inducer
[13] = system: A549-ACE2; test: drug-induced phospholipidosis relative to tamoxifen; higher = more phospholipidosis
[14] = system: A549-ACE2 infected with SARS-CoV-2; test: SARS-CoV-2 infection rate relative to DMSO; higher = more infection; conditions: 24 h
[15] = system: Caco-2; test: drug sensitivity score (DSS) for viability; higher = more toxic; extreme values may be limits of the assay; conditions: 72 h
[16] = system: Calu-3; test: as above; conditions: 72 h
[17] = system: HepG2; test: as above; conditions: 72 h
[18] = system: Vero E6; test: as above; conditions: 72 h
[19] = system: U2OS; test: as above; conditions: 72 h
[20] = system: Caco-2; test: relative viability EC50 (midpoint between 100% and the lowest measured viability); higher = less toxic; conditions: 72 h

CCN(CC)CCCCNc1ncc2cc(-c3cc(OC)cc(OC)c3)c(NC(=O)NC(C)(C)C)nc2n1
Conditions	SARS-CoV-2 infection rate [%]	cell count [%]	cell viability [%]	morphology score	phospholipidosis EC50 [nM]
[1], 1 nM	–	–	102	–	–
[1], 10 nM	–	–	105	–	–
[1], 100 nM	–	–	103	–	–
[1], 1000 nM	–	–	103	–	–
[1], 10000 nM	–	–	69	–	–
[2], 1 nM	–	–	98.9	–	–
[2], 10 nM	–	–	98.9	–	–
[2], 100 nM	–	–	100	–	–
[2], 1000 nM	–	–	98.5	–	–
[2], 10000 nM	–	–	75.6	–	–
[3], 1 nM	–	–	91.9	–	–
[3], 10 nM	–	–	101	–	–
[3], 100 nM	–	–	87.9	–	–
[3], 1000 nM	–	–	96.1	–	–
[3], 10000 nM	–	–	45.5	–	–
[4], 1 nM	–	–	94.5	–	–
[4], 10 nM	–	–	97.1	–	–
[4], 100 nM	–	–	100	–	–
[4], 1000 nM	–	–	90.1	–	–
[4], 10000 nM	–	–	35.9	–	–
[5], 1 nM	–	–	106	–	–
[5], 10 nM	–	–	105	–	–
[5], 100 nM	–	–	100	–	–
[5], 1000 nM	–	–	85.8	–	–
[5], 10000 nM	–	–	41.5	–	–
[6], 0.1 µM	–	96	–	–	–
[6], 0.3 µM	–	90	–	–	–
[6], 1 µM	–	103	–	–	–
[6], 3 µM	–	109	–	–	–
[11], 0.1 µM	–	–	–	0.01	–
[11], 0.3 µM	–	–	–	-0.12	–
[11], 1 µM	–	–	–	0.28	–
[11], 3 µM	–	–	–	0.68	–
[12], 24 h	–	–	–	–	3180
[12], 48 h	–	–	–	–	3060
[14], 0.1 µM	105	–	–	–	–
[14], 0.3 µM	105	–	–	–	–
[14], 1 µM	96	–	–	–	–
[14], 3 µM	35	–	–	–	–

Conditions	drug sensitivity score	relative viability EC50 [nM]
[7]	–	> 10000
[8]	–	2580
[9]	–	1960
[10]	–	1580
[15]	1.2	–
[16]	1.1	–
[17]	3.5	–
[18]	5.2	–
[19]	5.4	–

drug-induced phospholipidosis [%], [13]
Conditions	0.3 µM	0.833333 µM	3.33333 µM	6.66667 µM	10 µM	30 µM
24 h	4.11	13.5	106	165	234	84.5
48 h	4.6	12.8	151	224	200	–
72 h	6.12	13.2	–	–	168	–

CN(C)CCCCC(=O)Nc1ccc(NC(=S)NC(=O)c2ccc(C(C)(C)C)cc2)cc1 [tenovin-6]
Conditions	SARS-CoV-2 infection rate [%]	cell count [%]	cell viability [%]	morphology score	phospholipidosis EC50 [nM]
[1], 1 nM	–	–	92.9	–	–
[1], 10 nM	–	–	100	–	–
[1], 100 nM	–	–	98.5	–	–
[1], 1000 nM	–	–	94.6	–	–
[1], 10000 nM	–	–	12.2	–	–
[2], 1 nM	–	–	91.1	–	–
[2], 10 nM	–	–	107	–	–
[2], 100 nM	–	–	101	–	–
[2], 1000 nM	–	–	95.1	–	–
[2], 10000 nM	–	–	4.2	–	–
[3], 1 nM	–	–	107	–	–
[3], 10 nM	–	–	101	–	–
[3], 100 nM	–	–	110	–	–
[3], 1000 nM	–	–	88.8	–	–
[3], 10000 nM	–	–	0.8	–	–
[4], 1 nM	–	–	99.4	–	–
[4], 10 nM	–	–	96.7	–	–
[4], 100 nM	–	–	104	–	–
[4], 1000 nM	–	–	103	–	–
[4], 10000 nM	–	–	27.8	–	–
[5], 1 nM	–	–	94	–	–
[5], 10 nM	–	–	97.9	–	–
[5], 100 nM	–	–	96.3	–	–
[5], 1000 nM	–	–	101	–	–
[5], 10000 nM	–	–	5.4	–	–
[6], 0.1 µM	–	100	–	–	–
[6], 0.3 µM	–	102	–	–	–
[6], 1 µM	–	98	–	–	–
[6], 3 µM	–	113	–	–	–
[11], 0.1 µM	–	–	–	0.22	–
[11], 0.3 µM	–	–	–	0.15	–
[11], 1 µM	–	–	–	-0.08	–
[11], 3 µM	–	–	–	0.8	–
[12], 24 h	–	–	–	–	2910
[14], 0.1 µM	91	–	–	–	–
[14], 0.3 µM	90	–	–	–	–
[14], 1 µM	93	–	–	–	–
[14], 3 µM	23	–	–	–	–

Conditions	drug sensitivity score	relative viability EC50 [nM]
[7]	–	2770
[8]	–	2240
[9]	–	3370
[10]	–	3240
[15]	5.7	–
[16]	6	–
[17]	7.3	–
[18]	3.8	–
[19]	5.2	–
[20]	–	2680

drug-induced phospholipidosis [%], [13]
Conditions	0.3 µM	0.833333 µM	3.33333 µM	6.66667 µM	10 µM
24 h	-1.65	-1.47	61.4	90.4	56.6
48 h	1.91	0.33	30	–	–
72 h	0.744	-3.12	26.8	–	–
